The values below come from patent US20090238792A1, “SUPPRESSION OF POSTOPERATIVE ILEUS” (University of Pittsburgh of the Commonwealth System of …, priority 2007, published 2009).

Data set [1] deals with rats with surgical manipulation of the intestine. Briefly: Rat in vivo gastrointestinal transit of fluorescein-labeled dextran (geometric center). As for the experimental part: (§1) Age matched animals treated with vehicle (normal saline) or valine (263.5 mg/kg, osmotic control) at appropriate time points and at equal volumes served as controls.
(§2) The rodent intestine was subjected to a standardized degree of surgical manipulation as described previously (14). Rats were anesthetized by isoflurane inhalation and the abdomen was opened by a midline laparotomy. The cecum was eventrated and laid out onto a moist gauze. Then, the intestine was inspected along its length and gently compressed using moist cotton applicators. The midline incision was closed by two layers of continuous sutures. All operative procedures were performed under sterile conditions with the intestine being handled only by instruments and never touched directly. Animals were killed at specific time points postoperatively by isoflurane anesthesia inhalation overdose and heart incision.
(§3) Methods: ACI-rats (180-220 g) underwent standardized surgical manipulation of the intestine. […] Age matched animals treated with vehicle or valine (osmotic control) at appropriate time points and at equal volumes served as controls. […] Postoperative mediator mRNA expression in the intestinal muscularis was determined by real-time RT PCR. Leukocyte extravasation was investigated in muscularis whole-mounts. Nitrite production was measured in muscularis cultures. In vivo transit of FITC-dextran was measured using geometric center analysis (GC). In vitro circular muscle contractility was assessed in a standard organ bath. Statistical analysis: unpaired Student t test, p<0.05, mean±SEM.

Data set [2] has as its system COX-2 mRNA. The note with it: glycine 170 mg/kg, 3 hours postoperatively; SM 3.2-fold; not significant. The method, then:
as §1
The rodent intestine was subjected to a standardized degree of surgical manipulation as described previously (14). Rats were anesthetized by isoflurane inhalation and the abdomen was opened by a midline laparotomy. The cecum was eventrated and laid out onto a moist gauze. Then, the intestine was inspected along its length and gently compressed using moist cotton applicators. The midline incision was closed by two layers of continuous sutures. All operative procedures were performed under sterile conditions with the intestine being handled only by instruments and never touched directly. […]
mRNA Expression Analysis: Postoperative mediator mRNA expressions in the small intestinal muscularis were analyzed using SYBR Green two-step real-time RT-PCR as previously described, (N=4-6). […] Equal aliquots (200 ng) of total RNA from each sample, quantified by spectrophotometer, were processed for complimentary DNA (cDNA) synthesis. […] The efficiency and equality of the real-time PCR primer pairs were determined by amplifying serial dilutions of muscularis cDNA. […] Relative quantification was performed using the comparative CT method as described by Schmittgen et al. (42).

In data set [3] the test system is MPO positive leukocytes in the intestinal muscularis. Briefly: Myeloperoxidase (MPO) histochemistry: leukocyte infiltration in muscularis whole-mounts. The data set is classed as in vivo, rat. The conditions noted are these: for infiltrating MPO positive leukocytes: manipulated rats, 24 h postoperatively, SM vehicle 95±6.4. The method, then:
as §1, §2
Histochemistry and Immunohistochemistry: Leukocyte infiltration was quantified on rat whole-mounts of the intestinal muscularis as described previously (N=6-8) (43). Myeloperoxidase (MPO) positive cells were detected using a mixture of 30 mg Hanker-Yates reagent, 30 ml KRB and […] 3% hydrogen peroxide for 10 minutes. Leukocytes were counted in 5 randomly chosen areas in each specimen (3 specimen per animal) at a magnification of 200×.
as §3

Data set [4] relates to nitrite (nitric oxide). Briefly: Nitrite release (Griess reaction) from organ cultured muscularis. The data set is classed as in vivo, rat. The method, then: as §1, §2
Tissue culture and determination of nitrite and prostanoid release in supernatant: The rat small intestine and colon were processed for tissue culture at 24 hours as described previously, (N=5-8) (25). Briefly, the muscularis was isolated by stripping the muscularis from the mucosa and then cut into small pieces and washed twice in Hank's balanced salt solution (HBSS) with 100 U/ml penicillin G and 100 μg/ml streptomycin. Aliquots of muscularis ([…]) were incubated (37° C., 5% CO2) in 6-well tissue culture plates containing 3 ml of supplemented Dulbecco's modified Eagle medium (DMEM)-F12 with 100 U/ml penicillin G and 100 μg/ml streptomycin. After an incubation period of 24 hours, 500 μl aliquots of supernatant were collected, frozen in liquid nitrogen and stored at −80° C. The muscle tissue was blotted dry, and the weight was estimated. To estimate the generation of NO from the intestinal muscularis, nitrite production was measured by the Griess reaction (44). Supernatant from the tissue culture was mixed with equal amount of Griess reagent (0.1% N-(1-naphtyl)ethyl-enediamine dihydrochloride and 1% sulfanilamide in 6% phosphoric acid; 1:1) and incubated at room temperature for 10 minutes. The absorbance at 550 nm was measured with a microplate reader and compared with standard prepared from serial dilutions of sodium nitrite. Each standard and supernatant sample was analyzed in duplicate, and the mean value of nitrite production was normalized to the tissue weight.
as §3

The subject of data set [5] is C57Bl/6 mice with surgical manipulation (SM). The note with it: SM+glycine 170 mg/kg, control=11.0±0.44, SM=4.1±0.18, SM+saline=4.1±0.5. The method, then: as §1
Data set [6] deals with interleukins and chemokines. An excerpt: Luminex Multiplex Bead Immunoassays: The release of […] inflammatory analytes into the mouse tissue culture supernatant, obtained as above, was quantified with a Luminex 100™ using microsphere-based multiplexing technology. The mouse cytokine twenty plex immune kit was comprised of analyte specific components for the simultaneous measurement of the following mouse cytokines (FGF-basic, IL-1α, IL-1β, IL-2, IL-4, IL-5, IL-6, IL-10, IL-12p70, IL-13, IL-17, TNF-α, IFN-γ, GM-CSF, KC, MCP-1, MIG, MIP-1α, IP-10 and VEGF) (Invitrogen, Carlsbad, Calif.).

For data set [7] the following is noted: 170 mg/kg intravenously; cited from earlier work.

Take `NCC(=O)O` [glycine]: in data set [1] (Example 5, glycine (170 mg) i.v. 1 hour prior to surgery), the “postoperative intestinal transit” value is “ameliorated”. The “geometric center (GC) of gastrointestinal transit” value in data set [1] (surgically manipulated rats, 24 h postoperatively, i.v. pretreatment 1 h before surgery, glycine 170 mg/kg, valine 263.5 mg/kg, SM vehicle GC=5.2±0.7) was 8.5±0.7. Also, the “COX-2 mRNA postoperative upregulation” value in data set [2] stood at 2.3 fold. Further, the “reduction of infiltrating leukocytes compared to manipulated vehicle pretreated rats” value was 18% in data set [3] (glycine 85 mg/kg) and 27% in data set [3] (glycine 170 mg/kg). Moreover, the “infiltrating MPO positive leukocytes” value in data set [3] (85 mg/kg glycine) is given as 78±5.1 cells/field at 200×; in data set [3] (glycine 170 mg/kg or valine (263.5 mg/kg)), 69±5.7 cells/field at 200×. In data set [3] (rats without intestinal manipulation, glycine injected, vehicle 2±0.9), the MPO positive cells is given as 2±0.5 cells/field at 200× magnification. For the same molecule, the “attenuation of postoperative increase in nitrite production” value in data set [4] (Example 5, muscularis cultures, glycine (170 mg) i.v. 1 hour prior to surgery) was 39%. Further, the “nitrite release, fold increase over control, colon” value in data set [4] (manipulated rats, colonic muscularis 24 h organ culture, glycine 170 mg/kg or valine, SM vehicle 10.9-fold) amounted to 2.5 fold. The “nitrite release, fold increase over control, jejunum” value in data set [4] (manipulated rats, jejunal muscularis 24 h organ culture, glycine 170 mg/kg or valine, SM vehicle 11.4-fold) is reported as 2.7 fold. The “Griess reaction measurements from the unmanipulated muscularis” value in data set [4] (unmanipulated, glycine 170 mg/kg) is reported as “no significant effects”. Moreover, the “geometric center of gastrointestinal transit” value in data set [5] came to 10.3±7. The “interleukins and chemokines released into organ culture media, colonic muscularis externa” value in data set [6] (manipulated colonic muscularis, significance reached by IL-5, IL-6, IL-10, IL-12, KC, MCP-1, MIP1-α and GM-CSF) is listed as “tended to be quelled”. For the same molecule, the “interleukins and chemokines released into organ culture media, jejunal muscularis externa” value in data set [6] (manipulated jejunal muscularis, significance reached by IL-6, IP-10 and MIP1-α) is given as “tended to be quelled”. Further, the “production of chemokines (IP-10, KC, MCP-1, MIP-1α, VEGF and GM-CSF)” value in data set [6] (organ cultured muscularis of jejunum and colon, more dramatic in colon) is “trend for the inhibition”. The “release of interleukins 5, 6, 10 and 12” value in data set [6] (organ cultured muscularis of jejunum and colon, more pronounced in colon) is “decrease”. In addition, in data set [7], the “increase of glycine serum levels” value is given as “about sevenfold”.
